Patent US11066447B2, “Aureobasidium derivatives and methods of synthesis” (AureoGen Biosciences, Inc., priority 2016, dated 2021)
Values after ≈ are worked out from the molar mass of the structure shown. Like-named read-outs stand apart in the source and are kept apart here. Numbered stars: 1 amine (or outer) side, 2 acyl side, 3 side chain; on linkers, the order of the positions; unused ones are H or OH. Square brackets hold non-standard residues; d marks the D form. Peptide text beside a SMILES is read from it. X19 = CN([C@@H](Cc1cccc(-c2ccc(OCc3ccccc3)cc2)c1)C(=O)[*:2])[*:1]; X2 = CN1CCN(c2ccc(-c3cccc(C[C@@H](C(=O)[*:2])N(C)[*:1])c3)cc2)CC1; X23 = CN([C@@H](Cc1cccc(-c2cccc3c2cnn3C)c1)C(=O)[*:2])[*:1]; Hmp(2R,3S) = CC[C@H](C)[C@@H](O)C(=O)O; NMeVal(β-OH) = CN[C@H](C(=O)O)C(C)(C)O; NMeV = CN[C@H](C(=O)O)C(C)C

Experiments:
[1] = tested on: C. parapsilosis MMX 2323 ATCC 22019; test: MIC assay (CLSI microdilution); format: cell-based, Candida parapsilosis
Method in brief: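 Broth microdilution MIC testing of Candida parapsilosis ATCC 22019 followed CLSI methods in RPMI-1640, with or without 0.002% Tween-80. Yeast grown 48 hours at 35° C on Sabouraud dextrose agar was suspended to a 0.5 McFarland standard and diluted 1:100 to roughly 0.5-2.5×10^3 CFU/mL. The MIC was the lowest concentration preventing visible growth.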

A. flavus MMX 5948 = test: MIC/MEC assay (CLSI microdilution); format: cell-based; conditions: Aspergillus flavus
Method in brief: (§1)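 Aspergillus spore suspensions, diluted from counted stocks to a final approximately 0.2-2.5×10^4 CFU/mL, were inoculated into RPMI-1640 containing 0.002% Tween-80 holding two-fold drug dilutions. Compounds came from 95% ethanol, amphotericin B (0.06-64 μg/mL) from DMSO. MMX 5280 was also tested without Tween-80.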

[2] = tested on: A. fumigatus MMX 6782 ATCC 13073; test: MIC/MEC assay (CLSI microdilution); format: cell-based; conditions: Aspergillus fumigatus
Method in brief: as §1

[3] = tested on: A. niger MMX 0624 ATCC 16888; test: MIC/MEC assay (CLSI microdilution); format: cell-based
Method in brief: as §1

[4] = tested on: A. fumigatus MMX 5280 ATCC MYA-3626; test: MIC/MEC assay (CLSI microdilution); format: cell-based, Aspergillus fumigatus
Method in brief: as §1

[5] = tested on: C. albicans MMX 2000 ATCC 10231; test: MIC assay (CLSI microdilution); format: cell-based; conditions: Candida albicans
[6] = tested on: C. neoformans MMX 0634 ATCC 90112; test: MIC assay (CLSI microdilution); format: cell-based; conditions: Cryptococcus neoformans, read-out: MIC
A. fumigatus MMX 5944 = test: MIC/MEC assay (CLSI microdilution); format: cell-based
Method in brief: as §1

[7] = tested on: A. fumigatus MMX 6781 ATCC MYA-4609; test: MIC/MEC assay (CLSI microdilution); format: cell-based; conditions: Aspergillus fumigatus
Method in brief: as §1

[8] = tested on: A. fumigatus from Aureogen; test: MIC/MEC assay (CLSI microdilution); format: cell-based; conditions: Aspergillus fumigatus
Method in brief: as §1

[9] = tested on: C. albicans MMX 2000 ATCC 10231; test: MIC assay (CLSI microdilution); format: cell-based; conditions: Candida albicans, ATCC10231, RPMI plus 0.002% Tween-80; read-out: MIC
[10] = MMX5948, 48 h, RPMI plus 0.002% Tween-80
[11] = RPMI plus 0.002% Tween-80, 48 hr
[12] = ATCC90112, RPMI plus 0.002% Tween-80
[13] = ATCC22019, RPMI plus 0.002% Tween-80, read-out: MIC
[14] = ATCC22019, Without Tween-80, read-out: MIC
[15] = RPMI plus 0.002% Tween-80, 48 hr, read-out: MIC
[16] = Aspergillus fumigatus, 48 h, RPMI plus 0.002% Tween-80, read-out: MEC
[17] = Aspergillus fumigatus, 48 h, Without Tween-80, read-out: MEC
[18] = 48 h, RPMI plus 0.002% Tween-80, read-out: MIC

Which results are given for CC[C@H](C)[C@@H]1NC(=O)[C@@H]2CCCN2C(=O)[C@H](Cc2cccc(-c3ccc(OCc4ccccc4)cc3)c2)N(C)C(=O)[C@H](Cc2ccccc2)NC(=O)[C@H](C(C)C)N(C)C(=O)[C@@H]([C@@H](C)CC)OC(=O)[C@H](C(C)(C)O)N(C)C(=O)[C@H](CC(C)C)NC(=O)[C@H](C(C)C)N(C)C1=O [Compound 13] (cyclo(F[X19]PI[NMeV]L[NMeVal(β-OH)][Hmp(2R,3S)][NMeV]))?
MIC ([1]; ATCC22019, RPMI plus 0.002% Tween-80): > 64 µg/mL; MIC ([1]; ATCC22019, Without Tween-80): > 64 µg/mL; MIC (A. flavus MMX 5948; [10]): > 64 µg/mL; MIC ([2]; ATCC13073, 48 h, RPMI plus 0.002% Tween-80): > 64 µg/mL; minimal effective concentration ([2]; ATCC13073, 48 h, read-out: MEC, RPMI plus 0.002% Tween-80): 1 µg/mL; MEC [3, 11]: 2 µg/mL; MIC [3, 11]: 8 µg/mL; minimal effective concentration ([4]; Aspergillus fumigatus, 48 h, read-out: MEC, RPMI plus 0.002% Tween-80): > 64 µg/mL; minimal effective concentration ([4]; Aspergillus fumigatus, 48 h, read-out: MEC, Without Tween-80): > 64 µg/mL; MIC ([4]; Without Tween-80, 48 hr): >64/>64 μg/mL; MIC ([5]; ATCC10231, RPMI plus 0.002% Tween-80): 0.5 µg/mL

For CC[C@H](C)[C@@H]1NC(=O)[C@@H]2CCCN2C(=O)[C@H](Cc2cccc(-c3cccc4c3cnn4C)c2)N(C)C(=O)[C@H](Cc2ccccc2)NC(=O)[C@H](C(C)C)N(C)C(=O)[C@@H]([C@@H](C)CC)OC(=O)[C@H](C(C)(C)O)N(C)C(=O)[C@H](CC(C)C)NC(=O)[C@H](C(C)C)N(C)C1=O [Compound 14] (cyclo(F[X23]PI[NMeV]L[NMeVal(β-OH)][Hmp(2R,3S)][NMeV])), which MIC [6, 12] is on record?
Its MIC is 0.5 µg/mL.

What about the MIC [1, 13] of the same compound?
The MIC was 0.12 µg/mL.

What about the MIC [1, 14] of the same compound?
Its MIC is 1 µg/mL (≈ 0.812 µM).

What about the minimal effective concentration (A. flavus MMX 5948; MMX5948, RPMI plus 0.002% Tween-80, 48 hr) of the same compound?
The minimal effective concentration was over 64 µg/mL.

What about the MIC (A. flavus MMX 5948; MMX5948, RPMI plus 0.002% Tween-80, 48 hr, read-out: MIC) of the same compound?
Its MIC is over 64 µg/mL.

What about the MEC (A. fumigatus MMX 5944; [11]) of the same compound?
Its MEC is 1 µg/mL.

And the MIC (A. fumigatus MMX 5944; [11])?
The MIC was 8 µg/mL.

What about the minimal effective concentration [7, 11] of the same compound?
The minimal effective concentration was 1 µg/mL.

And the MIC [7, 15]?
The MIC was over 64 µg/mL.

What about the minimal effective concentration ([2]; ATCC13073, RPMI plus 0.002% Tween-80, 48 hr, read-out: MEC) of the same compound?
Its minimal effective concentration is 0.25 µg/mL.

What about the MIC ([2]; ATCC13073, RPMI plus 0.002% Tween-80, 48 hr, read-out: MIC) of the same compound?
The MIC was over 64 µg/mL.

What about the minimal effective concentration [8, 11] of the same compound?
The minimal effective concentration was 1 µg/mL.

What about the MIC [8, 15] of the same compound?
Its MIC is over 64 µg/mL.

What about the minimal effective concentration ([3]; Aspergillus niger, ATCC16888, RPMI plus 0.002% Tween-80, 48 hr, read-out: MEC) of the same compound?
The minimal effective concentration was 0.12 µg/mL.

What about the MIC ([3]; Aspergillus niger, ATCC16888, RPMI plus 0.002% Tween-80, 48 hr, read-out: MIC) of the same compound?
The MIC was 0.12 µg/mL.

What about the minimal effective concentration [4, 16] of the same compound?
Its minimal effective concentration is 0.5 µg/mL.

What about the minimal effective concentration [4, 17] of the same compound?
Its minimal effective concentration is 2 µg/mL.

What about the MIC ([4]; Aspergillus fumigatus, RPMI plus 0.002% Tween-80, 48 hr, read-out: MIC) of the same compound?
The MIC was over 64 µg/mL.

What about the MIC ([4]; Without Tween-80, 48 hr) of the same compound?
The MIC was over 64 µg/mL.

What about the MIC ([5]; ATCC10231, RPMI plus 0.002% Tween-80, read-out: MIC) of the same compound?
Its MIC is 0.03 µg/mL.

With CC[C@H](C)[C@@H]1NC(=O)[C@@H]2CCCN2C(=O)[C@H](Cc2cccc(-c3ccc(N4CCN(C)CC4)cc3)c2)N(C)C(=O)[C@H](Cc2ccccc2)NC(=O)[C@H](C(C)C)N(C)C(=O)[C@@H]([C@@H](C)CC)OC(=O)[C@H](C(C)(C)O)N(C)C(=O)[C@H](CC(C)C)NC(=O)[C@H](C(C)C)N(C)C1=O [Compound 19] (cyclo(F[X2]PI[NMeV]L[NMeVal(β-OH)][Hmp(2R,3S)][NMeV])) as the compound, how does the MIC [9] read?
The MIC was 0.015 µg/mL.

What about the MIC ([6]; ATCC90112, 72 h, 72 hour, RPMI plus 0.002% Tween-80) of the same compound?
The MIC was 0.06 µg/mL.

What about the MIC [6, 12] of the same compound?
Its MIC is 0.03 µg/mL.

And the MIC [1, 13]?
The MIC was 0.03 µg/mL.

And the MIC [1, 14]?
Its MIC is 1 µg/mL (≈ 0.784 µM).

And the MIC ([1]; Without Tween-80)?
Its MIC is 2 µg/mL (≈ 1.57 µM).

And the minimal effective concentration (A. flavus MMX 5948; [10])?
Its minimal effective concentration is 0.008 µg/mL.

What about the MIC (A. flavus MMX 5948; MMX5948, 48 h, RPMI plus 0.002% Tween-80, read-out: MIC) of the same compound?
The MIC was 0.015 µg/mL.

What about the minimal effective concentration (A. fumigatus MMX 5944; Aspergillus fumigatus, MMX5944, 48 h, RPMI plus 0.002% Tween-80) of the same compound?
The minimal effective concentration was 0.015 µg/mL.

And the MIC (A. fumigatus MMX 5944; Aspergillus fumigatus, MMX5944, 48 h, RPMI plus 0.002% Tween-80, read-out: MIC)?
The MIC was 0.06 µg/mL.

And the MEC (A. fumigatus MMX 5944; [11])?
The MEC was 0.015 µg/mL.

And the MIC [7, 18]?
The MIC was 0.12 µg/mL.

What about the minimal effective concentration [7, 11] of the same compound?
The minimal effective concentration was 0.06 µg/mL.

And the minimal effective concentration ([2]; ATCC13073, 48 h, RPMI plus 0.002% Tween-80, read-out: MEC)?
Its minimal effective concentration is 0.03 µg/mL.

What about the MIC ([2]; ATCC13073, 48 h, RPMI plus 0.002% Tween-80, read-out: MIC) of the same compound?
Its MIC is 0.12 µg/mL.

And the minimal effective concentration ([8]; 48 h, RPMI plus 0.002% Tween-80)?
Its minimal effective concentration is 0.06 µg/mL.

What about the MIC [8, 18] of the same compound?
Its MIC is 0.25 µg/mL.

And the minimal effective concentration ([3]; Aspergillus niger, ATCC16888, 48 h, RPMI plus 0.002% Tween-80, read-out: MEC)?
The minimal effective concentration was 0.008 µg/mL.

And the MIC ([3]; Aspergillus niger, ATCC16888, 48 h, RPMI plus 0.002% Tween-80, read-out: MIC)?
Its MIC is 0.015 µg/mL.

What about the MIC [3, 11] of the same compound?
The MIC was 0.015 µg/mL.

And the minimal effective concentration [4, 16]?
Its minimal effective concentration is 0.06 µg/mL.

And the MIC ([4]; Aspergillus fumigatus, 48 h, RPMI plus 0.002% Tween-80, read-out: MIC)?
The MIC was 0.25 µg/mL.

And the minimal effective concentration [4, 17]?
Its minimal effective concentration is 0.5 µg/mL.

And the MIC ([4]; Aspergillus fumigatus, 48 h, Without Tween-80, read-out: MIC)?
The MIC was 1 µg/mL (≈ 0.784 µM).

And the MEC ([4]; Without Tween-80, 48 hr)?
Its MEC is 1 µg/mL.

What about the MIC ([4]; Without Tween-80, 48 hr) of the same compound?
The MIC was 2 µg/mL (≈ 1.57 µM).

And the MIC ([5]; ATCC10231, Without Tween-80, read-out: MIC)?
The MIC was 0.5 µg/mL (≈ 0.392 µM).
